Laboratory results: patent publication US10472356B2, “Bicyclic ketone sulfonamide compounds” (AMGEN INC., priority 2015, dated 2019)

Legend:
Assay type in all cases: cell-based
[1] = biological target: T1, human Nav1.7 (Homo sapiens, UniProt Q15858); assay: Nav 1.7 IWQ In Vitro Assay (IonWorks Quattro); conditions: HEK293 cells stably transfected with human Nav 1.7; IonWorks Quattro population patch-clamp; 26th pulse to −20 mV, 5 Hz; cells unclamped 5 to 8 minutes with compound; read-out: hNav1.7 IWQ IC50
T1 construct: expressed in transfected cells; host or cells: HEK293
T1 sequence (Q15858 whole entry): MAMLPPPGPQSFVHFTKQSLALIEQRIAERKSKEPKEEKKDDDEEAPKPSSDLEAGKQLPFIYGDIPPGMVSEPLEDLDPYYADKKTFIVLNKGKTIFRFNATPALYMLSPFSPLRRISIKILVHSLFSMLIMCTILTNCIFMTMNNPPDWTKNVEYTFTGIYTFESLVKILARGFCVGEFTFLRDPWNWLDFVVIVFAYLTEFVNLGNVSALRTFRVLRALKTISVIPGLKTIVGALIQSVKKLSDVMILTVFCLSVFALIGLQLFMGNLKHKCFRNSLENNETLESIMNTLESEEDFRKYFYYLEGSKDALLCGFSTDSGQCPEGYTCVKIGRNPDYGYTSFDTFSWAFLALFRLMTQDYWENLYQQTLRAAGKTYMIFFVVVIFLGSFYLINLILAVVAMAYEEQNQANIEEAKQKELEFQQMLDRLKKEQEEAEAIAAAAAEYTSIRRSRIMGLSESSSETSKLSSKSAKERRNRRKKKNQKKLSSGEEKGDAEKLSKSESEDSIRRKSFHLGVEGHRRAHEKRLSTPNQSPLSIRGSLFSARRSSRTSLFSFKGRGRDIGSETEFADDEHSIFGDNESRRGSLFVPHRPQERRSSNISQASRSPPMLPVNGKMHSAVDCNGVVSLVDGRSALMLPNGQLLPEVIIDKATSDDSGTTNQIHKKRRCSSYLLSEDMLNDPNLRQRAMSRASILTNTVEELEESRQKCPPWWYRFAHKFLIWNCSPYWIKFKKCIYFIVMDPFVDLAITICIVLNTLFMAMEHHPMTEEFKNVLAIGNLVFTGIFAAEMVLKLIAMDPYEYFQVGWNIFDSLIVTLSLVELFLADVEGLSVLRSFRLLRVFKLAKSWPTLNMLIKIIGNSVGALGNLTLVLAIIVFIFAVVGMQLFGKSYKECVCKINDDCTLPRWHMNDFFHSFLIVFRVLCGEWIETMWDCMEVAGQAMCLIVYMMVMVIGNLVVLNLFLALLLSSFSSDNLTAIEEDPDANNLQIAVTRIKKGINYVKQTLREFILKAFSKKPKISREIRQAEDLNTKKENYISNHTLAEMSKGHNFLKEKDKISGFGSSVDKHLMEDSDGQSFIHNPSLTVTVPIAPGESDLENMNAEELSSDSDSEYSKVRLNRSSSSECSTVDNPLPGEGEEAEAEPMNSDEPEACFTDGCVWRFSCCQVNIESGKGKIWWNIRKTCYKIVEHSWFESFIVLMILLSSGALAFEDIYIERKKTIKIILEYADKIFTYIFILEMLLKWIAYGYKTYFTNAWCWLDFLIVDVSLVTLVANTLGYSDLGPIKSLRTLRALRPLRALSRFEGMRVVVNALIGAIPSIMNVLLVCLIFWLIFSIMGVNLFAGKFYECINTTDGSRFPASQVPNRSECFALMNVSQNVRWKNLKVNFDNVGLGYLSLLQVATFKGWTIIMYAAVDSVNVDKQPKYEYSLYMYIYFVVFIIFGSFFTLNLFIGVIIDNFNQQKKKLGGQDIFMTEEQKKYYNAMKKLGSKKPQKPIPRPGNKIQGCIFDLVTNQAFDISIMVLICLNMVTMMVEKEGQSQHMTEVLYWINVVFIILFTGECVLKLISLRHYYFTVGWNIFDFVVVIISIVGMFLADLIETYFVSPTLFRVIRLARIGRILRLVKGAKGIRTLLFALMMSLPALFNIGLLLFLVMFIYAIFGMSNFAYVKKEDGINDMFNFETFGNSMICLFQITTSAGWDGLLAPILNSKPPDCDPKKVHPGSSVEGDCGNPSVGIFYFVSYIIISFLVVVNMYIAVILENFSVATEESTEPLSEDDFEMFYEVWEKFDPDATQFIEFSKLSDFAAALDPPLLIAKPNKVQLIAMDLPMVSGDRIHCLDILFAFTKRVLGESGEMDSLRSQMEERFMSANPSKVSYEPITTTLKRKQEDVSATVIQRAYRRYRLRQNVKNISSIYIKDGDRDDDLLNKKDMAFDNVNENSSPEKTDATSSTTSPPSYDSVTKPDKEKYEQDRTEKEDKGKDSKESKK
Method: Nav 1.7 or Nav 1.5 IWQ In Vitro Assay
HEK293 cells stably transfected with either human Nav 1.7 or human Nav 1.5 were recorded in population patch-clamp mode with the IonWorks® Quattro automated electrophysiology system (Molecular Devices, LLC, Sunnyvale, Calif.). Cells were voltage clamped to −110 mV for three seconds (Nav 1.7) or half a second (Nav 1.5) and sodium currents were elicited by a train of 26 depolarizations of 150 msec duration to −20 mV (Nav 1.7) or 0 mV (Nav 1.5) at a frequency of 5 Hz. Cells were then left unclamped for a period of 5 to 8 minutes while a single concentration of test compound was added. Following this compound incubation period, cells were then reclamped to −110 mV for three seconds (Nav1.7) or half a second (Nav1.5) to recover unbound channels and put through the same 26 pulse voltage protocol as above. Peak inward current during the 26th pulse to −20 mV (Nav 1.7) or 0 mV (Nav 1.5) in the presence of compound was divided by the peak inward current evoked by the 26th pulse to −20 mV (Nav1.7) or 0 mV (Nav1.5) in the absence of compound to determine percent inhibition. Concentration-response curves of percent.

[2] = biological target: T1, human Nav1.7; assay: Nav 1.7 IWB In Vitro Assay (IonWorks Barracuda); conditions: HEK293 cells stably transfected with human Nav 1.7; IonWorks Barracuda population patch-clamp; cells clamped to −20 mV for 4 minutes with compound; 26th pulse; read-out: hNav1.7 IWB IC50
Outline: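 IC50 derived from concentration-response of percent block of the 26th-pulse peak inward current, compound vs none. Protocol: stable human Nav 1.7 HEK293 cells on automated population patch clamp, held at −110 mV, 5 Hz train of 150 ms steps to −20 mV, 4 min compound exposure depolarized at −20 mV, 3 s repolarization, train repeated.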

[3] = biological target: T1, human Nav1.7; assay: Nav 1.7 In Vitro PatchXpress (PX) Assay; conditions: HEK 293 cells stably transfected with human Nav1.7; PatchXpress whole cell voltage clamp; partially inactivated state (holding potential yielding 20 to 50% inactivation); read-out: hNav1.7 PX IC50
Outline: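 Percent inhibition of peak sodium current taken after 3 min exposure to one compound concentration, 3–5 cells each, with IC50 curve fits. Partially inactivated channels (20–50% inactivation at holding potential) in Nav1.7-HEK 293 cells, activated by 20 ms steps to −10 mV every 10 s.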

Compound	IC50 [1]	IC50 [2]	IC50 [3]
COc1cc(-c2ccc(C)c(F)c2)c(F)cc1-n1c2c(ccc1=O)CN(S(=O)(=O)Nc1ccon1)CC2 (racemic) [Example 21-(Rac), (Rac)-1-(2,3′-difluoro-5-methoxy-4′-methyl-4-biphenylyl)-N-3-isoxazolyl-2-oxo-1,5,7,8-tetrahydro-1,6-naphthyridine-6(2H)-sulfonamide]	14.3 nM	17.8 nM	91.3 nM
COc1cc(-c2cc(C(F)(F)F)cnc2OC)c(F)cc1-n1c2c(ccc1=O)CN(S(=O)(=O)Nc1ccon1)CC2 (racemic) [Example 23, (Rac)-1-(5-fluoro-2-methoxy-4-(2-methoxy-5-(trifluoromethyl)-3-pyridinyl)phenyl)-N-3-isoxazolyl-2-oxo-1,5,7,8-tetrahydro-1,6-naphthyridine-6(2H)-sulfonamide]	7 nM	6.8 nM	25.4 nM
COc1cc(-c2cc(F)cc(Cl)c2)c(F)cc1-n1c2c(ccc1=O)CN(S(=O)(=O)Nc1ncccn1)CC2 (racemic) [Example 31, (Rac)-1-(3′-chloro-2,5′-difluoro-5-methoxy-4-biphenylyl)-2-oxo-N-2-pyrimidinyl-1,5,7,8-tetrahydro-1,6-naphthyridine-6(2H)-sulfonamide]	28.1 nM	36.2 nM	137 nM
COc1cc(-c2ccc(Cl)c(C)c2)c(F)cc1-n1c2c(ccc1=O)CN(S(=O)(=O)Nc1cccnn1)CC2 (racemic) [Example 33-(Rac), (Rac)-1-(4′-chloro-2-fluoro-5-methoxy-3′-methyl-4-biphenylyl)-2-oxo-N-3-pyridazinyl-1,5,7,8-tetrahydro-1,6-naphthyridine-6(2H)-sulfonamide]	19.6 nM	26.1 nM	53.3 nM
COc1cc(-c2ccc(Cl)c(C#N)c2)c(F)cc1-n1c2c(ccc1=O)CN(S(=O)(=O)Nc1ccon1)CC2 (racemic) [Example 35, (Rac)-1-(4′-chloro-3′-cyano-2-fluoro-5-methoxy-4-biphenylyl)-N-3-isoxazolyl-2-oxo-1,5,7,8-tetrahydro-1,6-naphthyridine-6(2H)-sulfonamide]	4 nM	18 nM	177 nM
COc1cc(-c2ccc(Cl)c(C)c2)c(F)cc1-n1c2c(ccc1=O)CN(S(=O)(=O)Nc1nccs1)CC2 (racemic) [Example 39, (Rac)-1-(4′-chloro-2-fluoro-5-methoxy-3′-methyl-4-biphenylyl)-2-oxo-N-1,3-thiazol-2-yl-1,5,7,8-tetrahydro-1,6-naphthyridine-6(2H)-sulfonamide]	15.2 nM	37.8 nM	35.1 nM
COc1cc(-c2cc(OC)c(-n3c4c(ccc3=O)CN(S(=O)(=O)Nc3cccnn3)CC4)cc2F)ccc1Cl (single isomer, unassigned) [Example 2-M, M-1-(4′-chloro-2-fluoro-3′,5-dimethoxy-4-biphenylyl)-2-oxo-N-3-pyridazinyl-1,5,7,8-tetrahydro-1,6-naphthyridine-6(2H)-sulfonamide]	255 nM	132 nM	5530 nM
COc1cc(-c2cc(OC)c(-n3c4c(ccc3=O)CN(S(=O)(=O)Nc3cccnn3)CC4)cc2F)ccc1Cl (single isomer, unassigned) [Example 2-P, P-1-(4′-chloro-2-fluoro-3′,5-dimethoxy-4-biphenylyl)-2-oxo-N-3-pyridazinyl-1,5,7,8-tetrahydro-1,6-naphthyridine-6(2H)-sulfonamide]	< 19 nM	6.6 nM	259 nM
COc1cc(-c2cc(F)cc(Cl)c2)c(F)cc1-n1c2c(ccc1=O)CN(S(=O)(=O)Nc1ccnc(C)n1)CC2 (single isomer, unassigned) [Example 6-P, P-1-(3′-chloro-2,5′-difluoro-5-methoxy-4-biphenylyl)-N-(2-methyl-4-pyrimidinyl)-2-oxo-1,5,7,8-tetrahydro-1,6-naphthyridine-6(2H)-sulfonamide]	25.4 nM	64.8 nM	269 nM

Now from value to compound:

IC50 [1]	IC50 [2]	IC50 [3]	Compound
5.5 nM	15.6 nM	117 nM	COc1cc(-c2cccc(OC(F)F)c2)c(F)cc1-n1c2c(ccc1=O)CN(S(=O)(=O)Nc1ccon1)CC2 (racemic) [Example 19-(Rac), (Rac)-1-(3′-(difluoromethoxy)-2-fluoro-5-methoxy-4-biphenylyl)-N-3-isoxazolyl-2-oxo-1,5,7,8-tetrahydro-1,6-naphthyridine-6(2H)-sulfonamide]
6.7 nM	31.5 nM	159 nM	COc1cc(-c2ccc(F)c(F)c2)c(F)cc1-n1c2c(ccc1=O)CN(S(=O)(=O)Nc1ccon1)CC2 (racemic) [Example 20-(Rac), (Rac)-N-3-isoxazolyl-2-oxo-1-(2,3′,4′-trifluoro-5-methoxy-4-biphenylyl)-1,5,7,8-tetrahydro-1,6-naphthyridine-6(2H)-sulfonamide]
23.7 nM	30.5 nM	161 nM	COc1cc(-c2ccc(F)c(F)c2)c(F)cc1-n1c2c(ccc1=O)CN(S(=O)(=O)Nc1cccnn1)CC2 (racemic) [Example 32-(Rac), (Rac)-2-oxo-N-3-pyridazinyl-1-(2,3′,4′-trifluoro-5-methoxy-4-biphenylyl)-1,5,7,8-tetrahydro-1,6-naphthyridine-6(2H)-sulfonamide]
88.8 nM	48.5 nM	408 nM	COc1cc(C#CC2CCCC2)c(F)cc1-n1c2c(ccc1=O)CN(S(=O)(=O)Nc1ccon1)CC2 (racemic) [Example 34-(Rac), (Rac)-1-(4-(cyclopentylethynyl)-5-fluoro-2-methoxyphenyl)-N-3-isoxazolyl-2-oxo-1,5,7,8-tetrahydro-1,6-naphthyridine-6(2H)-sulfonamide]
137 nM	269 nM	1030 nM	COc1nc(-c2cc(F)cc(Cl)c2)c(F)cc1-n1c2c(ccc1=O)CN(S(=O)(=O)Nc1cccnn1)CC2 (racemic) [Example 37, (Rac)-1-(6-(3-chloro-5-fluorophenyl)-5-fluoro-2-methoxy-3-pyridinyl)-2-oxo-N-3-pyridazinyl-1,5,7,8-tetrahydro-1,6-naphthyridine-6(2H)-sulfonamide]
16.7 nM	10.2 nM	87.8 nM	COc1cc(-c2cc(F)cc(Cl)c2)c(F)cc1-n1c2c(ccc1=O)CN(S(=O)(=O)Nc1cccnn1)CC2 (racemic) [Example 38-(Rac), (Rac)-1-(3′-chloro-2,5′-difluoro-5-methoxy-4-biphenylyl)-2-oxo-N-3-pyridazinyl-1,5,7,8-tetrahydro-1,6-naphthyridine-6(2H)-sulfonamide]
12.3 nM	24.1 nM	78 nM	COc1cc(-c2cc(OC)c(-n3c4c(ccc3=O)CN(S(=O)(=O)Nc3ccon3)CC4)cc2F)ccc1C (racemic) [Example 58-(Rac), (Rac)-1-(2-fluoro-3′,5-dimethoxy-4′-methyl-4-biphenylyl)-N-3-isoxazolyl-2-oxo-1,5,7,8-tetrahydro-1,6-naphthyridine-6(2H)-sulfonamide]
224 nM	197 nM	2080 nM	COc1cc(-c2cc(F)cc(F)c2)c(F)cc1-n1c2c(ccc1=O)[C@H](C)N(S(=O)(=O)Nc1ccon1)CC2 (single isomer, unassigned) [Example 3-B-P]
24.3 nM	31.8 nM	78.4 nM	COc1cc(-c2cc(F)cc(Cl)c2)c(F)cc1-n1c2c(ccc1=O)CN(S(=O)(=O)Nc1cc(C)ncn1)CC2 (single isomer, unassigned) [Example 4-P, P-1-(3′-chloro-2,5′-difluoro-5-methoxy-4-biphenylyl)-N-(6-methyl-4-pyrimidinyl)-2-oxo-1,5,7,8-tetrahydro-1,6-naphthyridine-6(2H)-sulfonamide]
1.6 nM	1.5 nM	12.3 nM	COc1cc(-c2cc(F)cc(Cl)c2)c(F)cc1-n1c2c(ccc1=O)CN(S(=O)(=O)Nc1ncns1)CC2 (single isomer, unassigned) [Example 5-P, P-1-(3′-chloro-2,5′-difluoro-5-methoxy-4-biphenylyl)-2-oxo-N-1,2,4-thiadiazol-5-yl-1,5,7,8-tetrahydro-1,6-naphthyridine-6(2H)-sulfonamide]
